Measured values published in patent publication US9085555B2, “Complement pathway modulators and uses thereof” (priority 2011, dated 2015).

Target: Factor D (Homo sapiens (Human), UniProt P00746)
Assay: biochemical
Format: biochemical
Conditions: read-out: IC50

Sequence of Factor D (P00746 26-253): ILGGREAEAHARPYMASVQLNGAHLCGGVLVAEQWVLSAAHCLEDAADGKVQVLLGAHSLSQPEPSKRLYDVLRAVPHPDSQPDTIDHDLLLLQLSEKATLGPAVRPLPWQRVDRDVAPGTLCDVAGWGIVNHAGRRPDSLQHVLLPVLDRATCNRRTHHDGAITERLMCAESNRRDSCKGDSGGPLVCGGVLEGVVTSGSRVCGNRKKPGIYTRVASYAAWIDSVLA

Structure (SMILES) | IC50
CC(=O)c1nn(CC(=O)N2[C@@H]3C[C@@H]3C[C@H]2C(=O)Nc2cccc(OC(F)(F)F)c2F)c2ncccc12 [Example 711, (1R,3S,5R)-2-[2-(3-Acetyl-pyrazolo[3,4-b]pyridin-1-yl)-acetyl]-2-aza-bicyclo[3.1.0]hexane-3-carboxylic acid (2-fluoro-3-trifluoromethoxy-phenyl)-amide] | 0.071 µM
CCc1cc2c(C(N)=O)nn(CC(=O)N3[C@@H]4C[C@@H]4C[C@H]3C(=O)Nc3cccc(OC(F)(F)F)c3F)c2cn1 [Example 712, 5-Ethyl-1-{2-[(1R,3S,5R)-3-(2-fluoro-3-trifluoromethoxy-phenylcarbamoyl)-2-aza-bicyclo[3.1.0]hex-2-yl]-2-oxo-ethyl}-1H-pyrazolo[3,4-c]pyridine-3-carboxylic acid amide] | 0.038 µM
Cc1cc2c(cn1)c(C(N)=O)nn2CC(=O)N1[C@@H]2C[C@@H]2C[C@H]1C(=O)Nc1cccc(OC(F)(F)F)c1F [Example 713, 1-{2-[(1R,3S,5R)-3-(2-Fluoro-3-trifluoromethoxy-phenylcarbamoyl)-2-aza-bicyclo[3.1.0]hex-2-yl]-2-oxo-ethyl}-6-methyl-1H-pyrazolo[4,3-c]pyridine-3-carboxylic acid amide] | 0.26 µM
COc1cc2c(C(N)=O)nn(CC(=O)N3[C@@H]4C[C@@H]4C[C@H]3C(=O)Nc3cccc(OC(F)(F)F)c3F)c2cn1 [Example 714, 1-{2-[(1R,3S,5R)-3-(2-Fluoro-3-trifluoromethoxy-phenylcarbamoyl)-2-aza-bicyclo[3.1.0]hex-2-yl]-2-oxo-ethyl}-5-methoxy-1H-pyrazolo[3,4-c]pyridine-3-carboxylic acid amide] | 0.3 µM
CCc1cc2c(C(N)=O)nn(CC(=O)N3C[C@H](F)C[C@H]3C(=O)Nc3cccc(OC(F)(F)F)c3F)c2cn1 [Example 715, 5-Ethyl-1-{2-[(2S,4R)-4-fluoro-2-(2-fluoro-3-trifluoromethoxy-phenylcarbamoyl)-pyrrolidin-1-yl]-2-oxo-ethyl}-1H-pyrazolo[3,4-c]pyridine-3-carboxylic acid amide] | 0.027 µM
Cc1nccc2c(C(N)=O)nn(CC(=O)N3[C@@H]4C[C@@H]4C[C@H]3C(=O)Nc3cccc(OC(F)(F)F)c3F)c12 [Example 716, 1-{2-[(1R,3S,5R)-3-(2-Fluoro-3-trifluoromethoxy-phenylcarbamoyl)-2-aza-bicyclo[3.1.0]hex-2-yl]-2-oxo-ethyl}-7-methyl-1H-pyrazolo[3,4-c]pyridine-3-carboxylic acid amide] | 0.046 µM
Cc1cc2c(C(N)=O)nn(CC(=O)N3[C@@H]4C[C@@H]4C[C@H]3C(=O)Nc3cccc(OC(F)(F)F)c3F)c2c(C)n1 [Example 717, 1-{2-[(1R,3S,5R)-3-(2-Fluoro-3-trifluoromethoxy-phenylcarbamoyl)-2-aza-bicyclo[3.1.0]hex-2-yl]-2-oxo-ethyl}-5,7-dimethyl-1H-pyrazolo [3,4-c]pyridine-3-carboxylic acid amide] | 0.031 µM
CC(=O)c1nn(CC(=O)N2[C@@H]3C[C@@H]3C[C@H]2C(=O)Nc2cccc(OC(F)(F)F)c2F)c2ccc(OCc3ncccn3)cc12 [Example 718, (1R,3S,5R)-2-{2-[3-Acetyl-5-(pyrimidin-2-ylmethoxy)-indazol-1-yl]-acetyl}-2-aza-bicyclo[3.1.0]hexane-3-carboxylic acid (2-fluoro-3-trifluoromethoxy-phenyl)-amide] | 0.024 µM
NC(=O)c1nn(CC(=O)N2[C@@H]3C[C@@H]3C[C@H]2C(=O)Nc2cccc(OC(F)(F)F)c2F)c2cnc(C3CC3)cc12 [Example 719, 5-Cyclopropyl-1-(2-((1R,3S,5R)-3-((2-fluoro-3-(trifluoromethoxy)phenyl)carbamoyl)-2-azabicyclo [3.1.0]hexan-2-yl)-2-oxoethyl)-1H-pyrazolo[3,4-c]pyridine-3-carboxamide] | 0.013 µM
NC(=O)c1nn(CC(=O)N2[C@@H]3C[C@@H]3C[C@H]2C(=O)Nc2cccc(OC(F)(F)F)c2F)c2nnccc12 [Example 720, 1-(2-((1R,3S,5R)-3-((2-Fluoro-3-(trifluoromethoxy)phenyl)carbamoyl)-2-azabicyclo[3.1.0]hexan-2-yl)-2-oxoethyl)-1H-pyrazolo[3,4-c] pyridazine-3-carboxamide] | 0.14 µM
NC(=O)c1nn(CC(=O)N2[C@@H]3C[C@@H]3C[C@H]2C(=O)Nc2cccc(-c3c(F)cccc3F)n2)c2cnccc12 [Example 721, 1-(2-{(1R,3S,5R)-3-[6-(2,6-Difluoro-phenyl)-pyridin-2-ylcarbamoyl]-2-aza-bicyclo[3.1.0]hex-2-yl}-2-oxo-ethyl)-1H-pyrazolo[3,4-c]pyridine-3-carboxamide] | 0.098 µM
NC(=O)c1nn(CC(=O)N2[C@@H]3C[C@@H]3C[C@H]2C(=O)Nc2cccc(-c3c(F)cccc3Cl)c2)c2cnccc12 [Example 722, 1-(2-((1R,3S,5R)-3-(2′-Chloro-6′-fluorobiphenyl-3-ylcarbamoyl)-2-azabicyclo[3.1.0]hexan-2-yl)-2-oxoethyl)-1H-pyrazolo[3,4-c] pyridine-3-carboxamide] | 0.02 µM
Cc1cc2c(C(N)=O)nn(CC(=O)N3[C@@H]4C[C@@H]4C[C@H]3C(=O)Nc3cccc(OC(F)(F)F)c3F)c2cn1 [Example 723, 1-{2-[(1R,3S,5R)-3-(2-Fluoro-3-trifluoromethoxy-phenylcarbamoyl)-2-aza-bicyclo[3.1.0]hex-2-yl]-2-oxo-ethyl}-5-methyl-1H-pyrazolo[3,4-c]pyridine-3-carboxylic acid amide] | 0.09 µM
NC(=O)c1nn(CC(=O)N2[C@@H]3C[C@@H]3C[C@H]2C(=O)Nc2cccc(OC(F)(F)F)c2F)c2cnccc12 [Example 724] | 0.061 µM
CC(=O)c1nn(CC(=O)N2[C@@H]3C[C@@H]3C[C@H]2C(=O)Nc2cccc(OC(F)(F)F)c2F)c2cc(C(=O)O)ccc12 [Example 725] | 0.018 µM
Cc1cc2c(C(N)=O)nn(CC(=O)N3[C@@H]4C[C@@H]4C[C@H]3C(=O)Nc3cccc(OC(F)(F)F)c3F)c2c[n+]1[O-] [Example 726] | 0.169 µM
NC(=O)c1nn(CC(=O)N2[C@@H]3C[C@@H]3C[C@H]2C(=O)Nc2cccc(Br)n2)c2cnccc12 [Example 728, 1-{2-[(1R,3S,5R)-3-(6-bromo-pyridin-2-ylcarbamoyl)-2-aza-bicyclo[3.1.0]hex-2-yl]-2-oxo-ethyl}-1H-pyrazolo[3,4-c] pyridine-3-carboxylic acid amide] | 0.008 µM
NC(=O)c1nn(CC(=O)N2[C@@H]3C[C@@H]3C[C@H]2C(=O)Nc2cccc(OC(F)F)c2F)c2ccccc12 [Example 729, 1-{2-[(1R,3S,5R)-3-(3-Difluoromethoxy-2-fluoro-phenylcarbamoyl)-2-aza-bicyclo[3.1.0]hex-2-yl]-2-oxo-ethyl}-1H-indazole-3-carboxylic acid amide] | 0.062 µM
NC(=O)c1nn(CC(=O)N2[C@@H]3C[C@@H]3C[C@H]2C(=O)Nc2cccc(OC(F)F)c2F)c2cnccc12 [Example 730, 1-{2-[(1R,3S,5R)-3-(3-Difluoromethoxy-2-fluoro-phenylcarbamoyl)-2-aza-bicyclo[3.1.0]hex-2-yl]-2-oxo-ethyl}-1H-pyrazolo[3,4-c] pyridine-3-carboxylic acid amide] | 0.143 µM
NC(=O)c1nn(CC(=O)N2[C@@H]3C[C@@H]3C[C@H]2C(=O)Nc2cccc(Cl)c2F)c2ccccc12 [Example 731, 1-{2-[(1R,3S,5R)-3-(3-Chloro-2-fluoro-phenylcarbamoyl)-2-aza-bicyclo[3.1.0]hex-2-yl]-2-oxo-ethyl}-1H-indazole-3-carboxylic acid amide] | 0.053 µM
